In BindingDB's records for doi:10.7270/Q2QJ7FRJ (Nmmlsc, 2009):

target: Cell division control protein 42 homolog (Homo sapiens, UniProt P60953); test: wildtype Cdc42 GTP-binding inhibitors, SAR follow-up, biochemical, pyrazoline analogs, multiplex bead flow cytometry, Ki (AID 2019); conditions: not given
Sequence (P60953 whole entry): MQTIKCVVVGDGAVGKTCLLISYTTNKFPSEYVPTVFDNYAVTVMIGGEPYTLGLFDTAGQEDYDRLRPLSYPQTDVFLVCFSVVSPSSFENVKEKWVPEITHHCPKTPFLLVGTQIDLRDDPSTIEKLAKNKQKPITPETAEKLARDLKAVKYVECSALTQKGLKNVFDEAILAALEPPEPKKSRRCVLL

How did the EC50 turn out when `NS(=O)(=O)c1ccc(N2N=C(c3ccc(Cl)cc3)CC2c2ccccc2)cc1` (stereo unspecified) was run?
The EC50 was 3.32 µM.

Which EC50 does the source give for `COc1ccc(C2CC(c3ccc(F)cc3)=NN2c2cccc(F)c2)cc1OC` (stereo unspecified) here?
Its EC50 is 21 µM.

`COc1ccc(C2CC(c3ccc(Cl)cc3)=NN2c2ccc(S(N)(=O)=O)cc2)cc1` (stereo unspecified) was tested. Which EC50 did it give?
Its EC50 is 2.3 µM.

`COc1ccc(C2CC(c3ccc(C)cc3)=NN2c2ccc(S(N)(=O)=O)cc2)cc1` (stereo unspecified) was tested. Which EC50 did it give?
The EC50 was 2.21 µM.

`COc1ccc(C2CC(c3cccc(C(F)(F)F)c3)=NN2c2ccc(S(N)(=O)=O)cc2)cc1` (stereo unspecified) was tested. Which EC50 did it give?
Its EC50 is 3.11 µM.

`COc1ccc(C2CC(c3cccnc3)=NN2c2ccc(S(N)(=O)=O)cc2)cc1` (stereo unspecified) was tested. Which EC50 did it give?
Its EC50 is 9.51 µM.

same assay, conditions: inactive by the depositor's call

`Cc1onc(-c2ccccc2)c1-c1ccc(S(N)(=O)=O)cc1` was tested. Which EC50 did it give?
The EC50 was 30 µM.

For `O=[N+]([O-])c1ccc([N+]2=N[C-](c3ccccc3)CC2c2ccccc2)cc1` (stereo unspecified), which EC50 is on record?
The EC50 was 30 µM.

With `Brc1ccc(N2N=C(c3ccccc3)CC2c2ccccc2)cc1` (stereo unspecified) as the compound, how does the EC50 read?
Its EC50 is 30 µM.

With `COc1ccccc1C1CC(c2ccccc2)=NN1c1ccccc1` (stereo unspecified) as the compound, how does the EC50 read?
The EC50 was 30 µM.

`Clc1cccc(N2N=C(c3ccccc3)CC2c2ccccc2)c1` (stereo unspecified) was tested. Which EC50 did it give?
The EC50 was 30 µM.

With `Clc1ccc(N2N=C(c3ccccc3)CC2c2ccccc2)cc1` (stereo unspecified) as the compound, how does the EC50 read?
The EC50 was 30 µM.

`CC(=O)Oc1ccc(C2=NN(c3ccccc3)C(c3ccccc3)C2)cc1` (stereo unspecified) was tested. Which EC50 did it give?
The EC50 was 30 µM.

`O=C(O)c1ccc(N2N=C(c3ccccc3)CC2c2ccccc2)cc1` (stereo unspecified) was tested. Which EC50 did it give?
Its EC50 is 30 µM.

With `COc1ccc(C2=NN(c3ccccc3)C(c3ccccc3C(F)(F)F)C2)cc1` (stereo unspecified) as the compound, how does the EC50 read?
Its EC50 is 34.4 µM.

With `O=S(=O)(c1ccc(N2N=C(c3ccccc3)CC2c2ccccc2)cc1)C(F)F` (stereo unspecified) as the compound, how does the EC50 read?
Its EC50 is 0.231 µM.

Which EC50 does the source give for `CCc1ccc(C2=NN(c3ccc(S(N)(=O)=O)cc3)C(c3ccc(F)cc3)C2)cc1` (stereo unspecified) here?
Its EC50 is 30 µM.

`CN(C)c1ccc(C2C[C-](c3ccccc3)N=[N+]2c2ccc([N+](=O)[O-])cc2)cc1` (stereo unspecified) was tested. Which EC50 did it give?
The EC50 was 30 µM.

How did the EC50 turn out when `COc1ccc(C2CC(c3ccccc3)=NN2c2ccc(Cl)c(C(=O)O)c2)cc1` (stereo unspecified) was run?
The EC50 was 30 µM.

Which EC50 does the source give for `COc1ccc(C2CC(c3cccc(N(C)C)c3)=NN2c2ccc(S(N)(=O)=O)cc2)cc1` (stereo unspecified) here?
The EC50 was 30 µM.

With `COc1ccc(C2CC(c3ccncc3)=NN2c2ccc(S(N)(=O)=O)cc2)cc1` (stereo unspecified) as the compound, how does the EC50 read?
Its EC50 is 30 µM.

How did the EC50 turn out when `Fc1ccccc1C1CC(c2ccc(Br)cc2)=NN1c1ccc(Br)cc1` (stereo unspecified) [2,5-bis(4-bromophenyl)-3-(2-fluorophenyl)-3,4-dihydropyrazole] was run?
The EC50 was 30 µM.

`COc1ccc(C2CC(c3ccc(F)cc3)=NN2c2cc(Cl)ccc2Cl)cc1` (stereo unspecified) [2-(2,5-dichlorophenyl)-5-(4-fluorophenyl)-3-(4-methoxyphenyl)-3,4-dihydropyrazole] was tested. Which EC50 did it give?
The EC50 was 30 µM.

With `COc1ccc(C2=NN(c3ccc(Cl)c(Cl)c3)C(c3ccc(OC)cc3)C2)cc1` (stereo unspecified) [2-(3,4-dichlorophenyl)-3,5-bis(4-methoxyphenyl)-3,4-dihydropyrazole] as the compound, how does the EC50 read?
Its EC50 is 30 µM.

With `Fc1ccc(C2=NN(c3cccc(Br)c3)C(c3ccccc3)C2)cc1` (stereo unspecified) [2-(3-bromophenyl)-5-(4-fluorophenyl)-3-phenyl-3,4-dihydropyrazole] as the compound, how does the EC50 read?
The EC50 was 30 µM.

`COc1ccc(C2=NN(c3cccc(F)c3)C(c3ccc(OC)cc3)C2)cc1` (stereo unspecified) [2-(3-fluorophenyl)-3,5-bis(4-methoxyphenyl)-3,4-dihydropyrazole] was tested. Which EC50 did it give?
Its EC50 is 30 µM.

How did the EC50 turn out when `COc1ccc(C2CC(c3ccccc3)=NN2c2ccc(Cl)c(C(=O)O)c2)cc1OC` (stereo unspecified) [2-chloro-5-[3-(3,4-dimethoxyphenyl)-5-phenyl-3,4-dihydropyrazol-2-yl]benzoic acid] was run?
The EC50 was 30 µM.

`COc1ccc(C2=NN(c3cccc(F)c3)C(c3ccc(Cl)cc3)C2)cc1` (stereo unspecified) [3-(4-chlorophenyl)-2-(3-fluorophenyl)-5-(4-methoxyphenyl)-3,4-dihydropyrazole] was tested. Which EC50 did it give?
Its EC50 is 30 µM.

How did the EC50 turn out when `COc1ccc(C2C[C-](c3ccccc3)N=[N+]2c2ccc([N+](=O)[O-])cc2)cc1` (stereo unspecified) [3-(4-methoxyphenyl)-2-(4-nitrophenyl)-5-phenyl-3,4-dihydropyrazole] was run?
The EC50 was 30 µM.

How did the EC50 turn out when `COc1ccc(C2CC(c3ccccc3)=NN2c2cccc(S(N)(=O)=O)c2)cc1` (stereo unspecified) [3-[3-(4-methoxyphenyl)-5-phenyl-3,4-dihydropyrazol-2-yl]benzenesulfonamide] was run?
Its EC50 is 30 µM.

For `CN(C)c1ccc(C2CC(c3ccccc3)=NN2c2ccccc2)cc1` (stereo unspecified) [4-(2,5-diphenyl-3,4-dihydropyrazol-3-yl)-N,N-dimethylaniline], which EC50 is on record?
Its EC50 is 30 µM.
